Test results: US20050020658A1, “Selective cyclooxygenase-2 inhibitor patch” (priority 2002, published 2005)

What was measured:
[1] = Skin flux of 10 mM drug solutions in NMP, Franz diffusion cell; type: in vitro ADME, rat; settings: 10 mM solution in NMP, 1 ml; receptor 10% NMP in phosphate buffer saline pH 7.4; 32° C.; 3 replicates
Protocol: (§1) A 15 mm disk of the membrane was placed on a diffusion cell filled with the receptor fluid and the diffusion cell was maintained at 32° C. A 10 mM solution of each drug in NMP was placed in an amount of 1 ml on the membrane. […] The test was conducted in 3 replicates.

[2] = In vitro skin permeation of 1% drug solutions, Franz diffusion cell; type: in vitro ADME, rat
Protocol: A 15 mm disk of the membrane was placed on a diffusion cell filled with the receptor fluid and the diffusion cell was maintained at 32° C. A 10 mM solution of each drug in NMP was placed in an amount of 1 ml on the membrane. The amount of drug that had permeated through the membrane by various times in an 8-10 hour period was determined by HPLC analysis of the receptor fluid. The test was conducted in 3 replicates. […] The test solutions in this example comprised celecoxib or valdecoxib at a concentration of 1% weight/volume in various solvents. The test was conducted in 3 replicates. […] The test solutions in this example comprised celecoxib or valdecoxib at a concentration of 1% weight/volume in NMP, with or without oleic acid at 1% weight/volume. The test was conducted in 3 replicates.

[3] = Solubility of celecoxib and valdecoxib in various solvents at room temperature; type: physicochemical
Protocol: In order to identify candidate solvent systems for patch formulations of selective COX-2 inhibitory drugs of low water solubility, various solvents were tested for solubility of celecoxib and valdecoxib at room temperature.

[4] = In vitro skin permeation of poultice, tape and gel formulations, Franz diffusion cell; type: in vitro ADME, rat
Protocol: as §1, with “replicates. […] The test solutions in this example comprised celecoxib or valdecoxib at a concentration of 1% weight/volume in various solvents. The test was conducted in 3 replicates. A 25 mm disk was punched from each poultice and placed on a Franz diffusion cell. […]” for “replicates.”

[5] = Solubility of valdecoxib in NMP/PEG 400 mixtures at room temperature; type: physicochemical
Protocol: Solubility was determined by preparing a saturated solution of valdecoxib in the test solvent system at 80° C. and cooling this solution for 24 hours at room temperature.

[6] = in 1,3-butylene glycol, room temperature
[7] = in crotamiton, room temperature
[8] = in diethyl sebacate, room temperature
[9] = in dipropylene glycol, room temperature
[10] = in propylene glycol, room temperature
[11] = 0.5% poultice (crotamiton/PEG 400 solvents), 25 mm disk

| skin flux [1] | skin flux ([2]; 1% weight/volume in NMP) | skin flux ([2]; 1% weight/volume in PEG 400) | skin flux ([2]; 1% weight/volume in crotamiton) | solubility [3, 6] | solubility ([3]; in DIA, room temperature) | solubility ([3]; in NMP, room temperature) | solubility ([3]; in PEG 400, room temperature) | solubility [3, 7] | solubility [3, 8] | solubility [3, 9] | solubility [3, 10] | skin flux [4, 11] | skin flux ([4]; 1.0% gel (70% ethanol), 200 mg) | Structure (SMILES) | further results |
| --- | --- | --- | --- | --- | --- | --- | --- | --- | --- | --- | --- | --- | --- | --- | --- |
| 1.6 nmol/cm^2 · h | 0.15 μg/cm^2 · h | not detectable | not detectable | 20 mg/g | 94 mg/g | 219 mg/g | 340 mg/g | 306 mg/g | 77 mg/g | 44 mg/g | 28 mg/g | 0.008 μg/cm^2 · h | 0.039 μg/cm^2 · h | Cc1ccc(-c2cc(C(F)(F)F)nn2-c2ccc(S(N)(=O)=O)cc2)cc1 [celecoxib, 4-[5-(4-methylphenyl)-3-(trifluoromethyl)-1H-pyrazol-1-yl]benzenesulfonamide] |  |
| 3.3 nmol/cm^2 · h | 0.51 μg/cm^2 · h | not detectable | 0.02 μg/cm^2 · h | 19 mg/g | 20 mg/g | 190 mg/g | 198 mg/g | 165 mg/g | 10 mg/g | 67 mg/g | 30 mg/g | 0.009 μg/cm^2 · h | 0.115 μg/cm^2 · h | Cc1onc(-c2ccccc2)c1-c1ccc(S(N)(=O)=O)cc1 [valdecoxib, 4-[5-methyl-3-phenylisoxazol-4-yl]benzenesulfonamide] | solubility ([5]; NMP:PEG 400 ratio 0:5, saturated at 80° C., cooled 24 hours at room temperature): 169 mg/g; solubility ([5]; NMP:PEG 400 ratio 5:0): 190 mg/g; solubility ([5]; NMP:PEG 400 ratio 5:1): 149 mg/g; solubility ([5]; NMP:PEG 400 ratio 5:2): 126 mg/g; solubility ([5]; NMP:PEG 400 ratio 5:3): 100 mg/g; solubility ([5]; NMP:PEG 400 ratio 5:4): 73 mg/g; solubility ([5]; NMP:PEG 400 ratio 5:5): 71 mg/g; time at which amount of drug permeated reached a plateau ([2]; 1% in NMP, FIG. 4): about 4 hours; solubility ([3]; in glycerol, room temperature): 1 mg/g |
| 33.4 nmol/cm^2 · h |  |  |  |  |  |  |  |  |  |  |  |  |  | CC(C(=O)O)c1cccc(C(=O)c2ccccc2)c1 (centres unmarked) [ketoprofen] |  |
